# Tests used:
# Assay type in all cases: in vivo, SD rats
# [1] = tested on: animal model of cerebral hemorrhage; experiment: Hematoma volume in brain sections, collagenase-induced intracerebral hemorrhage (Example 1); conditions: 2 mg/mL solution of SMTP-7 injected into the brain at 0.2 µL/min over 10 minutes, 24 hours after collagenase injection; brain sections on day 7; FIG. 1A-1C, FIG. 2
# Description: (§1) Eight to 10 week old male SD rats (250 to 300 g body weight) were kept under a 12-hour light/dark cycle and a temperature of 22°C ± 1°C. The rats were raised in plastic cages and given free access to water and feed. The number of rats used in each experiment was n = 4 unless otherwise indicated. Moreover, a component other than those listed in the injection solution was physiological saline.
# (§2) The rats were anesthetized with isoflurane (1.5% isoflurane + 66% NO + 33% O2) and then injected with collagenase from clostridium histolyticum (type IV, made by Sigma-Aldrich) at a concentration of 0.25 U/µL at a position 3 mm lateral from the center of the brain, at bregma level in the anteroposterior direction and 5 mm behind the stria vascularis using a syringe to inject for 5 minutes at a rate of 0.2 µL/min, then the syringe needle was held at that position for 10 minutes, and then slowly withdrawn over another 10 minutes (0.5 mm per minute). Note that care was taken to prevent backflow during injection. In the following description, the day of this collagenase injection is referred to as day 0. This collagenase injection causes an intracerebral hemorrhage and the formation of a hematoma. […]
# Moreover, the ratio of volume of hematoma to the volume of the entire brain was also measured using Imaged. […]
# [2] = tested on: animal model of cerebral hemorrhage; experiment: Evans blue staining of brain sections, collagenase-induced intracerebral hemorrhage (Example 2); conditions: SMTP-7 test solution as in example 1; 2% Evans blue into tail vein 1 hour before sacrifice, day 7; FIG. 3A-3D, 4, 5
# Description: as §1
# The rats were anesthetized with isoflurane (1.5% isoflurane + 66% NO + 33% O2) and then injected with collagenase from clostridium histolyticum (type IV, made by Sigma-Aldrich) at a concentration of 0.25 U/µL at a position 3 mm lateral from the center of the brain, at bregma level in the anteroposterior direction and 5 mm behind the stria vascularis using a syringe to inject for 5 minutes at a rate of 0.2 µL/min, then the syringe needle was held at that position for 10 minutes, and then slowly withdrawn over another 10 minutes (0.5 mm per minute). […]
# The same experiment as in example 1 was performed again. […] Micrographs of whole brains and 3 mm thick sections are illustrated in FIG. 3A to FIG. 3D, and the total area (mm^2) of Evans blue-stained region and staining density determined from the sections using Imaged are shown in FIG. 4 and FIG. 5. […] In FIG. 5, the vertical axis represents the concentration value of Evans blue expressed as absorbance at a wavelength of 620 nm.
# [3] = tested on: animal model of cerebral hemorrhage; experiment: Small animal MRI (T2-weighted) of hematoma and edema, collagenase-induced intracerebral hemorrhage (Example 3); conditions: SMTP-7 test solution as in example 1
# Description: as §1
# as §2, with “0.” for “0. This collagenase injection causes an intracerebral hemorrhage and the formation of a hematoma.”
# Collagenase injection and test solution injection were performed as in example 1, and rat brains were measured by small animal MRI on days 1 and 7 after collagenase injection (PharmaScan made by Bruker BioSpin). […] The volume of hematomas was measured based on these MRI measurements using Imaged. […]
# [4] = tested on: animal model of cerebral hemorrhage; experiment: Barnes maze test, collagenase-induced intracerebral hemorrhage (Example 4); conditions: SMTP-7 test solution as in example 1; day 7 to day 10 after collagenase injection; FIG. 11-15
# Description: as §1
# as §2, with “0.” for “0. This collagenase injection causes an intracerebral hemorrhage and the formation of a hematoma.”
# Collagenase injection and test solution injection were performed as in example 1, and a Barnes maze test (Barnes maze test) was performed on day 7 after collagenase injection. […] The time it took to reach the escape box and the number of holes where the rats incorrectly stayed at were evaluated. […]
# [5] = tested on: animal model of cerebral hemorrhage; experiment: LAN cable walking test of motor function, collagenase-induced intracerebral hemorrhage (Example 5); conditions: SMTP-7 test solution as in example 1; observed for 60 seconds on LAN cable; FIG. 16
# Description: as §1, §2
# Collagenase injection and test solution injection were performed as in example 1, and the motor function of rats was evaluated by having the rats walk on a local area network (LAN) cable. […]
# [6] = tested on: animal model of cerebral hemorrhage; experiment: Hematoxylin-eosin (HE) staining of brain sections, hematoma area (Example 6); conditions: SMTP-7 test solution as in example 1; sections on day 7 after collagenase injection; FIG. 17-18
# Description: as §1, §2
# [7] = tested on: animal model of cerebral hemorrhage; experiment: Luxol fast blue and Cresyl violet double staining, myelin density in white matter (Example 7); conditions: SMTP-7 test solution as in example 1; ipsilateral, contralateral and central sites; day 7; FIG. 19-21
# Description: as §1, §2
# [8] = tested on: cleaved caspase-3 (Asp175); experiment: Antibody staining of brain sections for cleaved caspase-3 (Example 8); conditions: SMTP-7 test solution as in example 1, cerebral cortex, day 7, FIG. 22-24
# Description: as §1, §2
# GFAP = experiment: Antibody staining of brain sections with anti-GFAP antibodies (Example 9); conditions: SMTP-7 test solution as in example 1; day 7; FIG. 25-27
# Description: as §1, §2
# Iba-1 = experiment: Antibody staining of brain sections with anti-Iba-1 antibodies (Example 10); conditions: SMTP-7 test solution as in example 1; day 7; FIG. 28-30
# Description: as §1, §2
smiles,measurement,setting,value
CC(C)=CCC/C(C)=C/CC[C@]1(C)Oc2c(c(O)cc3c2CN(CCC[C@@H](C(=O)O)N2Cc4c(cc(O)c5c4O[C@@](C)(CC/C=C(\C)CCC=C(C)C)[C@@H](O)C5)C2=O)C3=O)C[C@@H]1O [SMTP-7],ratio of volume of hematoma to the volume of the entire brain,[1],marked reduction in hematoma
same,hematoma: total area of Evans blue-stained region and staining density,[2],marked reduction in hematoma
same,volume ratio of hematoma in the T2-weighted MRI image,"[3]; MRI on days 1 and 7 after collagenase injection, FIG. 6-8",marked reduction in both hematoma and edema
same,ratio of cerebral edema volume in brain volume (MRI),"[3]; day 7 after collagenase injection, FIG. 9-10",marked reduction in both hematoma and edema
same,learning ability: time required to reach the escape box and number of incorrect holes,[4],marked improvement in learning ability
same,motor ability: total score (0 to 10) in LAN cable walking test,[5],marked improvement in motor ability
same,area of the hematoma region identified by HE staining,[6],marked reduction in hematoma
same,white matter lesions (demyelination): myelin density in white matter,[7],marked suppression of hematoma lesions
same,"number of cells expressing caspase-3 (immunopositive cells per 100 µm^2 of ROI), contralateral",[8]; contralateral to collagenase injection,markedly reduced
same,"number of cells expressing caspase-3 (immunopositive cells per 100 µm^2 of ROI), ipsilateral",[8]; ipsilateral to collagenase injection,markedly reduced
same,"neuron damage: immunostaining using antibodies against GFAP, number of immunopositive cells",GFAP,significantly suppressed
same,"inflammation: immunostaining using antibodies against Iba-1, number of immunopositive cells",Iba-1,significantly suppressed

# Source: patent EP4252752A1, “DRUG FOR TREATMENT OR PREVENTION OF CEREBRAL HEMORRHAGE, AND METHOD FOR TREATMENT OR PREVENTION OF CEREBRAL HEMORRHAGE USING SAID DRUG” (Biogen MA Inc., priority 2020, dated 2022)
